Consider 27 compounds from ChEMBL document CHEMBL3425445, “Synthesis, crystal structure and biological evaluation of substituted quinazolinone benzoates as novel antituberculosis agents targeting acetohydroxyacid synthase” (Eur J Med Chem, 2015).

≈ marks a conversion by molar mass, not a printed value. Where only a bound is given, the exact number is not on record here.

For series [1], the system named is Mycobacterium tuberculosis. Kind of series: Inhibition of Mycobacterium tuberculosis AHAS catalytic subunit assessed as inhibition of acetoin formation using […] as substrate at 100 uM after 1 hr.
Series [2] can be described thus: Inhibition of Mycobacterium tuberculosis AHAS catalytic subunit assessed as inhibition of acetoin formation using […] as substrate after 1 hr.
Series [3] relates to Mycobacterium tuberculosis. Kind of series: Antitubercular activity against Mycobacterium tuberculosis H37Rv ATCC 27294 assessed as inhibition of bacterial growth after 4 weeks by two-fold dilution technique. Particulars: H37Rv ATCC 27294, 672 h. In kind it is functional.
For series [4], the system named is Mycobacterium tuberculosis. Kind of series: Antitubercular activity against isoniazid, rifampin, streptomycin, ethambutol, amikacin, ofloxacin, kanamycin-susceptible Mycobacterium tuberculosis assessed as inhibition of bacterial growth after 4 weeks by two-fold dilution technique. Particulars: 672 h. The series is classed as functional.
Another series concerns THP-1. Kind of series: Cytotoxicity against human THP1 cells at 20 mg/L by MTT assay. The series is classed as cell-based. Background: Tetrazolium dyes change colour on reduction, which living cells bring about.
In series [5] the test system is Mycobacterium tuberculosis. Kind of series: Antitubercular activity against Mycobacterium tuberculosis H37Rv ATCC 27294 infected in human THP-1 cells assessed as inhibition of intracellular activity at 20 mg/L after 4 days. In kind it is functional. The settings on record: H37Rv ATCC 27294, THP-1, 96 h.
Series [6] deals with Mycobacterium tuberculosis. Kind of series: Antitubercular activity against isoniazid, rifampin, streptomycin, ethambutol, amikacin, ofloxacin, kanamycin-susceptible Mycobacterium tuberculosis infected in human THP-1 cells assessed as inhibition of intracellular activity at 20 mg/L after 4 days. In kind it is functional. Particulars: THP-1, 96 h.
For series [7], the system named is Mycobacterium tuberculosis. Kind of series: Antitubercular activity against Mycobacterium tuberculosis H37Rv ATCC 27294 infected in human THP-1 cells assessed as inhibition of intracellular activity at 10 mg/L after 4 days. The series is classed as functional. Particulars: H37Rv ATCC 27294, THP-1, 96 h.
For series [8], the system named is Mycobacterium tuberculosis. Kind of series: Antitubercular activity against isoniazid, rifampin, streptomycin, ethambutol, amikacin, ofloxacin, kanamycin-susceptible Mycobacterium tuberculosis infected in human THP-1 cells assessed as inhibition of intracellular activity at 10 mg/L after 4 days. In kind it is functional. The settings on record: THP-1, 96 h.

By inhibition is commonly meant the percentage by which the read-out fell short of the control. What is called IC50 is the point on the concentration scale where inhibition reaches its midpoint. A word on the MIC: it is the lowest concentration found to suppress growth.

As to `O=C(On1c(-c2cccc(F)c2)nc2ccccc2c1=O)c1cccc(C(F)(F)F)c1`, the inhibition in series [1] amounted to 30%. The IC50 in series [2] was greater than 100 µM. Also, the MIC in series [3] was greater than 50 µg/mL.

Regarding `Cc1cccc(-c2nc3ccccc3c(=O)n2OC(=O)c2ccccc2)c1`, the inhibition in [1] came out at 40.5%. In addition, the IC50 in series [2] was greater than 100 µM. The minimal inhibitory concentration (MIC) in series [3] is greater than 50 µg/mL.

With `O=C(On1c(-c2ccccc2)nc2ccccc2c1=O)c1ccc(Cl)cc1`, the inhibition in series [1] worked out at 7.5%. In series [2], the IC50 is greater than 100 µM. In series [3], the MIC was greater than 50 µg/mL.

`CO[C@H]1/C=C/O[C@@]2(C)Oc3c(C)c(O)c4c(O)c(c(/C=N/N5CCN(C)CC5)c(O)c4c3C2=O)NC(=O)/C(C)=C\C=C\[C@H](C)[C@H](O)[C@@H](C)[C@@H](O)[C@@H](C)[C@H](OC(C)=O)[C@@H]1C` [RIFAMPIN]: the MIC in series [4] turned out to be 0.4 µg/mL (≈ 0.486 µM).

`O=C(On1c(-c2ccccc2)nc2ccccc2c1=O)c1ccccc1`: the inhibition in [1] was 20.5%. The IC50 in series [2] is greater than 100 µM. For the same compound, in series [3], the MIC was greater than 50 µg/mL.

For `Cc1ccccc1-c1nc2ccccc2c(=O)n1OC(=O)c1cccc(F)c1`, the inhibition in series [1] stood at 30%. Also, the IC50 in series [2] was greater than 100 µM. Besides, the MIC in series [3] was greater than 50 µg/mL.

With `Cc1ccc(C(=O)On2c(-c3cccc(C)c3)nc3ccccc3c2=O)cc1`, the inhibition in series [1] worked out at 33%. Further, the IC50 in [2] was greater than 100 µM. In addition, the MIC in [3] is greater than 50 µg/mL.

As to `COc1cccc(-c2nc3ccccc3c(=O)n2OC(=O)c2cccc([N+](=O)[O-])c2)c1`, the inhibition in series [1] is 94%. Also, in series [2], the IC50 came to 8.74 µM. Further, the MIC in series [3] and in series [4] was 5 µg/mL (≈ 12 µM) in each case.

Take `COc1cccc(C(=O)On2c(-c3cccc(F)c3)nc3ccccc3c2=O)c1`: the inhibition in series [1] is 28%. In addition, in series [2], the IC50 was greater than 100 µM. The MIC in series [3] stood at 50 µg/mL (≈ 128 µM).

As for `O=C(On1c(-c2cccc(F)c2)nc2ccccc2c1=O)c1ccccc1`, in [1], the inhibition came out at 26%. Further, the IC50 in series [2] was greater than 100 µM. In addition, in series [3], the MIC turned out to be 50 µg/mL (≈ 139 µM).

For the compound `O=C(On1c(-c2cccc(F)c2)nc2ccccc2c1=O)c1cccc(Cl)c1`, the inhibition in series [1] came out at 42.5%. The IC50 in series [2] is greater than 100 µM. Further, the MIC in series [3] is greater than 50 µg/mL.

In the case of `Cc1ccc(C(=O)On2c(-c3ccccc3)nc3ccccc3c2=O)cc1`, the inhibition in series [1] was determined as 18%. Moreover, in series [2], the IC50 is greater than 100 µM. For the same compound, the MIC in [3] is greater than 50 µg/mL.

Regarding `Cc1cccc(-c2nc3ccccc3c(=O)n2OC(=O)c2ccc(Cl)cc2)c1`, in series [1], the inhibition worked out at 0%. In addition, the IC50 in series [2] was greater than 100 µM. Besides, the MIC in series [3] was greater than 50 µg/mL.

As to `O=C(On1c(-c2cccc(F)c2)nc2ccccc2c1=O)c1cccc(F)c1`, the inhibition in [1] is 72%. In [2], the IC50 is 6.5 µM. Further, the MIC in series [3] and in series [4] was 2.5 µg/mL (≈ 6.61 µM) in each case. For the same compound, the Activity entry with THP-1 is “Non-toxic”. The values for the inhibition at 20 µg/mL in series [5] and in series [6] were 49.5% and 48.2%, respectively. Besides, the inhibition at 10 µg/mL in [7] turned out to be 24.8%; in series [8], 23.4%.

In the case of `COc1cccc(C(=O)On2c(-c3ccccc3)nc3ccccc3c2=O)c1`, in [1], the inhibition was 27%. For the same compound, the IC50 in [2] is greater than 100 µM. In addition, the MIC in series [3] is greater than 50 µg/mL.

On to `O=C(On1c(-c2ccccc2)nc2ccccc2c1=O)c1cccc(F)c1`, for which the inhibition in [1] stood at 26%. Also, the IC50 in series [2] was greater than 100 µM. Further, the MIC in [3] was greater than 50 µg/mL.

With `COc1cccc(-c2nc3ccccc3c(=O)n2OC(=O)c2cccc(Cl)c2)c1`, in [1], the inhibition was 23.5%. The IC50 in series [2] was greater than 100 µM. Besides, the MIC in series [3] was greater than 50 µg/mL.

With `Cc1cccc(C(=O)On2c(-c3ccccc3)nc3ccccc3c2=O)c1`, the inhibition in series [1] came to 4%. Also, in series [2], the IC50 was greater than 100 µM. Also, the MIC in series [3] is greater than 50 µg/mL.

Consider `Cc1cccc(-c2nc3ccccc3c(=O)n2OC(=O)c2cccc(C(F)(F)F)c2)c1`, for which the inhibition in series [1] is 9.5%. In series [2], the IC50 was greater than 100 µM. The MIC in series [3] was greater than 50 µg/mL.

In the case of `NNC(=O)c1ccncc1` [ISONIAZID], the MIC in [4] is 0.2 µg/mL (≈ 1.46 µM).

`Cc1ccccc1C(=O)On1c(-c2ccccc2)nc2ccccc2c1=O`: the inhibition in series [1] was determined as 16.5%. In addition, the IC50 in series [2] was greater than 100 µM. For the same compound, in series [3], the MIC is greater than 50 µg/mL.

Turning to `O=C(On1c(-c2ccccc2)nc2ccccc2c1=O)c1cccc([N+](=O)[O-])c1`, the inhibition in series [1] amounted to 91.5%. The IC50 in [2] is 9.68 µM. For the same compound, the MIC in series [3] and in [4] was 5 µg/mL (≈ 12.9 µM) throughout.

For `Cc1cccc(-c2nc3ccccc3c(=O)n2OC(=O)c2cccc(F)c2)c1`, the inhibition in series [1] came to 9.5%. For the same compound, in [2], the IC50 was greater than 100 µM. In [3], the MIC was greater than 50 µg/mL.

As to `O=C(On1c(-c2ccccc2)nc2ccccc2c1=O)c1cccc(Cl)c1`, the inhibition in [1] was 80.5%. Besides, the IC50 in [2] is 12.1 µM. Besides, the MIC in series [3] and in series [4] was 5 µg/mL (≈ 13.3 µM) in each case.

As for `COC(=O)c1ccccc1S(=O)(=O)NC(=O)Nc1nc(C)cc(C)n1` [SULFOMETURON METHYL], the IC50 in series [2] is 4.79 µM. The MIC in [3] and in series [4] was 10 µg/mL (≈ 27.4 µM) throughout. Further, the inhibition at 20 µg/mL in [5] was 32.5%; in series [6] it was 32.3%. For the same compound, the inhibition at 10 µg/mL came out at 15.9% in [7] and 15.5% in series [8].

For `COc1cccc(-c2nc3ccccc3c(=O)n2OC(=O)c2cccc(C(F)(F)F)c2)c1`, the inhibition in series [1] came out at 73.2%. In series [2], the IC50 is 9.57 µM. Besides, the MIC in [3] and in [4] was 10 µg/mL (≈ 22.7 µM) each time.

In the case of `Cc1cccc(C(=O)On2c(-c3cccc(C)c3)nc3ccccc3c2=O)c1`, the inhibition in [1] stood at 10.5%. In addition, the concentration for half-maximal inhibition (IC50) in series [2] was greater than 100 µM. Besides, in series [3], the MIC was greater than 50 µg/mL.
